Columns and labels:
soybeans = test: Field screening for metribuzin tolerance in soybeans (Example 11, 13); type: in vivo, Glycine max; conditions: soybean lines containing a heterozygous (CT) allele of NGMAX006079502
Description: Field screening for metribuzin tolerance in soybeans was performed at the Monsanto Company Soybean Research Station near Mount Olive, N.C. in 2010 and 2011. Metribuzin application rate was 0.5 lbs/acre metribuzin (Sencor®, Bayer Crop Science, Research Triangle Park, N.C., U.S.A.) one day prior to planting. Rows were planted as single six foot row plots with 9 seed per foot. Multiple repetitions were grown per row. Within 24 hours after planting, the trial was irrigated with 0.5 inches of water to help incorporate and activate the herbicide. Injury ratings were taken fourteen to twenty one (14 to 21) days after planting using a 1 to 9 scale (for example, 1=no damage, 9=completely killed). After identifying the target region through the mapping population described in Example 12, a molecular marker was identified. An association study was done using a soybean molecular marker database. Over 200 commercial and breeding lines were characterized for metribuzin tolerance in field and greenhouse screening, as described in Example 11.

soybean varieties = test: Metribuzin sensitivity or tolerance phenotype of soybean varieties (Table S-3); type: in vivo, Glycine max
Description: To observe the presence or absence of the “metribuzin sensitivity” or metribuzin tolerance phenotypes, soybean plants are typically exposed in early to mid-vegetative growth stages to one or more doses of metribuzin. Typical doses of metribuzin that can elicit a metribuzin sensitivity phenotype can range from about a 1-fold label application rate of a commercially available metribuzin formulation (i.e. about 0.25 pounds per acre) to about a 3-fold label application rate (i.e. about 0.75 pounds per acre) of a commercially available metribuzin formulation. Commercially available formulations containing metribuzin that can be used include, but are not limited to, Authority®MTZ (FMC Corporation, Philadelphia, Pa., USA); Boundary (Syngenta, Wilmington, Del., USA); Canopy® or Lexone® (Dupont, Wilmington, Del., USA); Sencor® (Bayer Crop Science, Research Triangle Park, N.C., USA); or TriCor® DF (United Phosphorus, Inc., King of Prussia, Pa., USA. In certain embodiments, the commercially available metribuzin formulation used is TriCor® 75DF. In certain embodiments, doses of metribuzin that can elicit a metribuzin sensitivity phenotype can range from about a 1 fold application rate of about 0.25 pounds per acre to about a three fold application rate of 0.75 pounds per acre.
The metribuzin sensitivity phenotype can be observed approximately one week to three weeks after herbicide application in certain soybean varieties that are sensitive to metribuzin. Metribuzin is typically applied during pre and post-emergent vegetative growth stages. In certain embodiments of these methods, metribuzin can be applied to the soil about 2 days prior to soybean seed planting and activated by irrigation of the planted seed to score for the presence of the metribuzin sensitivity phenotype. Genotypes provided herein are especially useful for providing metribuzin tolerance to plants exposed to metribuzin by a pre-emergence soil drench. As discussed herein, the vegetative stages of soybean are as follows: VE (emergence), VC (cotyledon stage), V1 (first trifoliate leaf), V2 (second trifoliate leaf), V3 (third trifoliate leaf), V(n) (nth trifoliate leaf), and V6 (flowering will soon start). As discussed herein, the reproductive stages of soybean are as follows: R1 (beginning bloom), R2 (full bloom), R3 (beginning pod), R4 (full pod), R5 (beginning seed), R6 (full seed), R7 (beginning maturity) and R8 (full maturity). A description of the soybean vegetative and reproductive stages can be found on the World Wide Web (internet) at ag.ndsu.edu/pubs/plantsci/rowcrops/a1174/a1174w.htm (North Dakota State University publication A-1174, June 1999, Reviewed and Reprinted August 2004).
A rating scale that evaluates the degree of metribuzin sensitivity can also be employed to identify “metribuzin sensitive” and “metribuzin tolerant” plants. An exemplary and non-limiting scale for evaluating the Metribuzin sensitivity phenotype is as follows, where a low number corresponds to a “metribuzin tolerance” phenotype and the a high number correlates to a “metribuzin sensitivity” phenotype:
A non-limiting and exemplary list of soybean plants that comprise genomic regions associated with either a metribuzin sensitivity or a metribuzin tolerance phenotype are provided herewith in Table S-3.

CSc1nnc(C(C)(C)C)c(=O)n1N [Metribuzin, 4-amino-6-(1,1-dimethylethyl)-3-(methylthio)-1,2,4-triazin-5(4H)-one]
metribuzin phenotype in the field (soybeans): mixed phenotype of both tolerance and sensitivity
METRIBUZIN PHENOTYPE (soybean varieties; soybean variety AG4531): Tolerant
METRIBUZIN PHENOTYPE (soybean varieties; soybean variety AG4730): Tolerant
METRIBUZIN PHENOTYPE (soybean varieties; soybean variety AG6130): Sensitive
METRIBUZIN PHENOTYPE (soybean varieties; soybean variety AG6730): Sensitive
METRIBUZIN PHENOTYPE (soybean varieties; soybean variety AG6931): Tolerant
METRIBUZIN PHENOTYPE (soybean varieties; soybean variety BURLISON (from TRACY)): Sensitive
METRIBUZIN PHENOTYPE (soybean varieties; soybean variety DASSEL (from PAGODA)): Sensitive
METRIBUZIN PHENOTYPE (soybean varieties; soybean variety H7550): Sensitive
METRIBUZIN PHENOTYPE (soybean varieties; soybean variety PAGODA): Sensitive
METRIBUZIN PHENOTYPE (soybean varieties; soybean variety TRACY): Sensitive
METRIBUZIN PHENOTYPE (soybean varieties; soybean variety Tracy-M): Tolerant

From US20150313228A1, “SYNERGISTIC HERBICIDAL COMBINATIONS AND METHODS OF USE” (priority 2012, published 2015)
